For 20 molecules, IC50 results are on record in US20240360082A1, “SUBSTITUTED PYRIDONE COMPOUNDS USEFUL TO TREAT ORTH[…]” (priority 2021, published 2024).

In the first assay the target is influenza A virus minigenome (PB2, PB1, PA, NP proteins) (UniProt P04665). The class given is cell-based. The settings on record: read-out: RNP_ Hubei B IC50.
influenza A virus minigenome (PB2, PB1, PA, NP proteins), sequence (P04665 whole entry): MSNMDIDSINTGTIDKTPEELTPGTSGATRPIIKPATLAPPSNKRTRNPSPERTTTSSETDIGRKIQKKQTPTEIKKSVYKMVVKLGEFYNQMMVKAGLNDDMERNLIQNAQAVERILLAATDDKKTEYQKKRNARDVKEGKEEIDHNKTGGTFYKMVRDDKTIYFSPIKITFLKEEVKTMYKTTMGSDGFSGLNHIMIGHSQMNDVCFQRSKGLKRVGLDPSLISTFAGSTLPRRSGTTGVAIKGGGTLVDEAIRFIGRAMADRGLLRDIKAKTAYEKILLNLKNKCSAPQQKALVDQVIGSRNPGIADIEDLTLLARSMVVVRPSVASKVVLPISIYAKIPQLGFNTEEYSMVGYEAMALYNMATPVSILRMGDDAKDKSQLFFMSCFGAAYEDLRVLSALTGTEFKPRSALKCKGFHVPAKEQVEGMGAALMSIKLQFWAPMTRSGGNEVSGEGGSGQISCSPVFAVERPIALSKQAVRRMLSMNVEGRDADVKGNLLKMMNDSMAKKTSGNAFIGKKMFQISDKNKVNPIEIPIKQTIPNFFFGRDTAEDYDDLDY
As for `NC(=O)c1cc(-c2ccc(OCC3COCC(C4CCCC4)O3)cc2)c(C(F)(F)F)[nH]c1=O` (racemic) [Example 333, 5-(4-((6-cyclopentyl-1,4-dioxan-2-yl)methoxy)phenyl)-2-oxo-6-(trifluoromethyl)-1,2-dihydropyridine-3-carboxamide], the IC50 was 1 to 5 µM.

On to `NC(=O)c1cc(-c2ccc(OCC3COC4(CC4)CO3)cc2)c(C(F)(F)F)[nH]c1=O` (racemic) [Example 338, 5-(4-((4,7-dioxaspiro[2.5]octan-6-yl)methoxy)phenyl)-2-oxo-6-(trifluoromethyl)-1,2-dihydropyridine-3-carboxamide], for which the IC50 was in the range of 10 to 25 µM. Take `NC(=O)c1cc(-c2ccc(OCC3COCCO3)cc2)c(C(F)(F)F)[nH]c1=O` (single isomer, unassigned) [Example 237, 5-(4-((1,4-dioxan-2-yl)methoxy)phenyl)-2-oxo-6-(trifluoromethyl)-1,2-dihydropyridine-3-carboxamide]: the IC50 lay in the range of 25 to 50 µM. For `NC(=O)c1cc(-c2ccc(OCC3COCCO3)cc2)c(C(F)(F)F)[nH]c1=O` (single isomer, unassigned) [Example 238, 5-(4-((1,4-dioxan-2-yl)methoxy)phenyl)-2-oxo-6-(trifluoromethyl)-1,2-dihydropyridine-3-carboxamide], the IC50 fell in the range of 25 to 50 µM.

Consider `Cn1ncc2c1COCC2COc1ccc(-c2cc(C(N)=O)c(=O)[nH]c2C(F)(F)F)cc1` (single isomer, unassigned) [Example 289, 5-(4-((1-methyl-1,4,5,7-tetrahydropyrano[3,4-c]pyrazol-4-yl)methoxy)phenyl)-2-oxo-6-(trifluoromethyl)-1,2-dihydropyridine-3-carboxamide], for which the IC50 lay within 5 to 10 µM.

For the molecule `Cn1ncc2c1COCC2COc1ccc(-c2cc(C(N)=O)c(=O)[nH]c2C(F)(F)F)cc1` (single isomer, unassigned) [Example 290, 5-(4-((1-methyl-1,4,5,7-tetrahydropyrano[3,4-c]pyrazol-4-yl)methoxy)phenyl)-2-oxo-6-(trifluoromethyl)-1,2-dihydropyridine-3-carboxamide], the IC50 fell in the range of 5 to 10 µM. `CC(C)n1ncc2c1COCC2COc1ccc(-c2cc(C(N)=O)c(=O)[nH]c2C(F)(F)F)cc1` (single isomer, unassigned) [Example 293, 5-(4-((1-isopropyl-1,4,5,7-tetrahydropyrano[3,4-c]pyrazol-4-yl)methoxy)phenyl)-2-oxo-6-(trifluoromethyl)-1,2-dihydropyridine-3-carboxamide]: the IC50 lay in the range of 5 to 10 µM.

Consider `CC(C)n1ncc2c1COCC2COc1ccc(-c2cc(C(N)=O)c(=O)[nH]c2C(F)(F)F)cc1` (single isomer, unassigned) [Example 294, 5-(4-((1-isopropyl-1,4,5,7-tetrahydropyrano[3,4-c]pyrazol-4-yl)methoxy)phenyl)-2-oxo-6-(trifluoromethyl)-1,2-dihydropyridine-3-carboxamide], for which the IC50 is 5 to 10 µM. In the case of `CC(C)n1cc2c(n1)COCC2COc1ccc(-c2cc(C(N)=O)c(=O)[nH]c2C(F)(F)F)cc1` (single isomer, unassigned) [Example 295, 5-(4-((2-isopropyl-2,4,5,7-tetrahydropyrano[3,4-c]pyrazol-4-yl)methoxy)phenyl)-2-oxo-6-(trifluoromethyl)-1,2-dihydropyridine-3-carboxamide], the IC50 fell in the range of 5 to 10 µM. Take `CC(C)n1cc2c(n1)COCC2COc1ccc(-c2cc(C(N)=O)c(=O)[nH]c2C(F)(F)F)cc1` (single isomer, unassigned) [Example 296, 5-(4-((2-isopropyl-2,4,5,7-tetrahydropyrano[3,4-c]pyrazol-4-yl)methoxy)phenyl)-2-oxo-6-(trifluoromethyl)-1,2-dihydropyridine-3-carboxamide]: the IC50 is 5 to 10 µM. Same read-out and setting: in the case of `NC(=O)c1cc(-c2ccc(OCC3C[C@@H]4CC[C@H]3O4)cc2)c(C(F)(F)F)[nH]c1=O` (single isomer, unassigned) [Example 312, 5-(4-((7-oxabicyclo[2.2.1]heptan-2-yl)methoxy)phenyl)-2-oxo-6-(trifluoromethyl)-1,2-dihydropyridine-3-carboxamide] it was 5 to 10 µM.

Staying with this assay, now noted: read-out: RNP_Hubei B.
On to `CC(Oc1ccc(-c2cc(C(N)=O)c(=O)[nH]c2C(F)(F)F)cc1)c1cccnc1` (single isomer, unassigned) [Example 80, (R or S)-2-oxo-5-(4-(1-(pyridin-3-yl)ethoxy)phenyl)-6-(trifluoromethyl)-1,2-dihydropyridine-3-carboxamide], for which the IC50 lay within 10 to 25 µM. Still for that read-out and setting: in the case of `CC(Oc1ccc(-c2cc(C(N)=O)c(=O)[nH]c2C(F)(F)F)cc1)c1cccnc1` (single isomer, unassigned) [Example 81, (R or S)-2-oxo-5-(4-(1-(pyridin-3-yl)ethoxy)phenyl)-6-(trifluoromethyl)-1,2-dihydropyridine-3-carboxamide] it was 10 to 25 µM; in that of `CC(Oc1ccc(-c2cc(C(N)=O)c(=O)[nH]c2C(F)(F)F)cc1)c1cncnc1` (single isomer, unassigned) [Example 95, (R or S)-2-oxo-5-(4-(1-(pyrimidin-5-yl)ethoxy)phenyl)-6-(trifluoromethyl)-1,2-dihydropyridine-3-carboxamide], 25 to 50 µM.

On to `CC(Oc1ccc(-c2cc(C(N)=O)c(=O)[nH]c2C(F)(F)F)cc1)c1cncnc1` (single isomer, unassigned) [Example 96, (R or S)-2-oxo-5-(4-(1-(pyrimidin-5-yl)ethoxy)phenyl)-6-(trifluoromethyl)-1,2-dihydropyridine-3-carboxamide], for which the IC50 was in the range of 25 to 50 µM.

As to `CC(Oc1ccc(-c2cc(C(N)=O)c(=O)[nH]c2C(F)(F)F)cc1)c1cccc(C#N)c1` (single isomer, unassigned) [Example 97, (R or S)-5-(4-(1-(3-cyanophenyl)ethoxy)phenyl)-2-oxo-6-(trifluoromethyl)-1,2-dihydropyridine-3-carboxamide], the IC50 was in the range of 25 to 50 µM. With `CC(Oc1ccc(-c2cc(C(N)=O)c(=O)[nH]c2C(F)(F)F)cc1)c1cccc(C#N)c1` (single isomer, unassigned) [Example 98, (R or S)-5-(4-(1-(3-cyanophenyl)ethoxy)phenyl)-2-oxo-6-(trifluoromethyl)-1,2-dihydropyridine-3-carboxamide], the IC50 was 1 to 5 µM. On to `CC(Oc1ccc(-c2cc(C(N)=O)c(=O)[nH]c2C(F)(F)F)cc1)c1ccc2nonc2c1` (single isomer, unassigned) [Example 100, (R or S)-5-(4-(1-(benzo[c][1,2,5]oxadiazol-5-yl)ethoxy)phenyl)-2-oxo-6-(trifluoromethyl)-1,2-dihydropyridine-3-carboxamide], for which the IC50 is 5 to 10 µM. Still for that read-out and setting: the value for `COC1CCOC(COc2ccc(-c3cc(C(N)=O)c(=O)[nH]c3C(F)(F)F)cc2)C1` (single isomer, unassigned) [Example 202, 5-(4-((4-methoxytetrahydro-2H-pyran-2-yl)methoxy)phenyl)-2-oxo-6-(trifluoromethyl)-1,2-dihydropyridine-3-carboxamide] was 10 to 25 µM. In the case of `COC1CCOC(COc2ccc(-c3cc(C(N)=O)c(=O)[nH]c3C(F)(F)F)cc2)C1` (single isomer, unassigned) [Example 203, 5-(4-((4-methoxytetrahydro-2H-pyran-2-yl)methoxy)phenyl)-2-oxo-6-(trifluoromethyl)-1,2-dihydropyridine-3-carboxamide], the IC50 was 25 to 50 µM.
